Data on one compound can be found in patent publication EP2923697B1, “Extract and novel isolated compound from Aspergillus terreus for treatment of mouth microbial infections” (King Saud University, priority 2014, dated 2015).

≈ marks a conversion by molar mass, not a printed value.

For test [1], the system named is Streptococcus gordonii. The test is described as follows: In-vitro activity in combination with Coe-Comfort tissue conditioner. The test is classed as cell-based.
For test [2], the system named is Streptococcus mutans. The experiment in a line: MIC determination, micro-dilution method. The test is classed as cell-based. To be noted: read-out: Minimum Inhibitory Concentration. The text has this: (§1) Mouth microbial representatives including unicellular fungi; Candida albicans (RCMB 05382), Candida glabrata (RCMBA 05386), Candida parapsilosis (RCMBA 06002), Candida tropicalis (RCMB 05384), Gram-positive bacteria; Lactobacillus acidophilus (RCMBA 4267), Streptococcus gordonii (RCMBA 2004), Streptococcus mutans (RCMBA 4131), and Gram-negative bacteria; Pseudomonas aeruginosa (RCMBA 1002) were obtained from the Regional Center for Mycology and Biotechnology (RCMB), Al-Azhar University, Cairo, Egypt, as test organisms.
(§2) The minimum inhibitory concentration (MIC) was determined by micro-dilution method using serially diluted (2 folds) extract and isolated compound. MIC of the extract was determined by dilution of extract and isolated compound of concentrations of 0.0-1000 µg/ml. Equal volume of each extract and nutrient broth were mixed in a test tube. Specifically 0.1 ml of standardized inoculum (1-2 X 10^7 CFU/ml) was added in each tube. The tubes were incubated at 37°C for 24-48 h. Two control tubes containing the growth medium, saline and the inoculum were maintained for each test batch. The lowest concentration (highest dilution) of the extract that produced no visible microbial growth (no turbidity) when compared with the control tubes were regarded as MIC.
(In broth dilution the organism is exposed to a series of concentrations in liquid medium.)

The test system of test [3] is Lactobacillus acidophilus. The test is described as follows: MIC determination, micro-dilution method. The test is classed as cell-based. To be noted: read-out: Minimum Inhibitory Concentration.
Excerpt: as §1, §2

The subject of test [4] is Streptococcus gordonii. The test is described as follows: MIC determination, micro-dilution method. The test is classed as cell-based. To be noted: read-out: Minimum Inhibitory Concentration.
Excerpt: as §1, §2

Test [5] relates to Pseudomonas aeruginosa. The experiment in a line: MIC determination, micro-dilution method. To be noted: read-out: Minimum Inhibitory Concentration. The test is classed as cell-based.
Excerpt: as §1, §2

The subject of test [6] is Streptococcus mutans. The experiment in a line: Antimicrobial activity, well diffusion method. The test is classed as cell-based. To be noted: 5mg/ml of sample around well (6 mm), mean ± Standard deviation. The text has this:
(§3) Mouth microbial representatives including unicellular fungi; Candida albicans (RCMB 05382), Candida glabrata (RCMBA 05386), Candida parapsilosis (RCMBA 06002), Candida tropicalis (RCMB 05384), Gram-positive bacteria; Lactobacillus acidophilus (RCMBA 4267), Streptococcus gordonii (RCMBA 2004), Streptococcus mutans (RCMBA 4131), and Gram-negative bacteria; Pseudomonas aeruginosa (RCMBA 1002) were obtained from the Regional Center for Mycology and Biotechnology (RCMB), Al-Azhar University, Cairo, Egypt, as test organisms. Antimicrobial activity was determined by the well diffusion method. Petri plates contained 20 ml of Nutrient (for bacteria) or Malt extract (for fungi). Agar medium were seeded with 1-3 day cultures of microbial inoculums (1-2 X 10^7 CFU/ml). […] The assessment of antimicrobial activity was based on measurement of the diameter of the inhibition zone formed around the well.

The test system of test [7] is Lactobacillus acidophilus. The test is described as follows: Antimicrobial activity, well diffusion method. The test is classed as cell-based. As to conditions: 5mg/ml of sample around well (6 mm), mean ± Standard deviation.
Excerpt: as §3
(In general: Agar diffusion results depend on both activity and mobility in agar.)

Test [8] concerns Streptococcus gordonii. The test is described as follows: Antimicrobial activity, well diffusion method. The test is classed as cell-based. To be noted: 5mg/ml of sample around well (6 mm), mean ± Standard deviation.
Excerpt: as §3

The subject of test [9] is Pseudomonas aeruginosa. The experiment in a line: Antimicrobial activity, well diffusion method. The test is classed as cell-based. To be noted: 5mg/ml of sample around well (6 mm), mean ± Standard deviation.
Excerpt: as §3

Test [10] has as its system Lactobacillus acidophilus. The experiment in a line: In-vitro activity in combination with Coe-Comfort tissue conditioner, CFU count. As to conditions: for No. colony-forming units (CFU): mixed with Coe-Comfort. The test is classed as cell-based.
Another test has as its system S. mutans. The test is described as follows: In-vitro activity in combination with Coe-Comfort tissue conditioner. The test is classed as cell-based, Streptococcus mutans.

Regarding `[H]/N=C(\N/C(=N/[H])NCCCCCCNC(=N)NC(=N)Nc1ccc(Cl)cc1)Nc1ccc(Cl)cc1` [Chlorhexidine, reference compound], the figures for the “concentration giving total growth inhibition” value (with Streptococcus gordonii [1]; in [10] (in combination with Coe-comfort tissue conditioner); in the test with S. mutans) were 3.9 µg/mL, 15.63 µg/mL and 15.63 µg/mL, respectively. For the same compound, the MIC in the test with Streptococcus mutans [2] was 0.49 µg/mL (≈ 0.969 µM); in [3] it was 0.06 µg/mL (≈ 0.119 µM); in the test with Streptococcus gordonii [4], 0.98 µg/mL (≈ 1.94 µM); in the test on Pseudomonas aeruginosa [5], 3.9 µg/mL (≈ 7.72 µM). Also, the “Diameter of inhibition zone” value with Streptococcus mutans [6] is on record as 23.5 ± 0.34 mm; in [7], 26.2± 0.42 mm; with Streptococcus gordonii [8] it was 22.1± 0.51 mm; in the test with Pseudomonas aeruginosa [9], 20.1 ± 0.19 mm. Moreover, the “No. colony-forming units (CFU)” value is recorded as 6.4 x 10^5 in test [10] (concentration 000.24 µg/ml); 2.3 x 10^5 in [10] (concentration 000.49 µg/ml); 3.1 x 10^4 in test [10] (concentration 000.98 µg/ml); 5.4 x 10^3 in test [10] (concentration 001.95 µg/ml); 1.9 x 10^3 in test [10] (concentration 003.90 µg/ml); 7.9 x 10^2 in [10] (concentration 007.81 µg/ml). The “No. colony-forming units (CFU)” value in [10] (concentration 015.63 µg/ml), in [10] (concentration 031.25 µg/ml) and in test [10] (concentration 062.50 µg/ml) was 00.00 throughout.
